Results on twelve molecules are retold here after PMC8707700, “Ru(III) Complexes with Lonidamine-Modified Ligands” (International Journal of Molecular Sciences, 2021).

Like-named read-outs stand apart in the source and are kept apart here.

As a reminder, the Log P is the decadic logarithm of the partition coefficient of the neutral form, usually between octanol and water. A word on the IC50: it is the point on the concentration scale where inhibition reaches its midpoint. Usually melting point stands for the temperature, or range, at which the solid turns liquid.

A short description of series [1]: Stability of Ru(III) complexes in phosphate buffer by UV-vis spectrophotometry. It counts as physicochemical. The settings on record: 20 mM phosphate buffer pH 7.4, 100 mM NaCl, 37 °C; mean ± SD, three experiments. Here is the method: The stability of Ru(III) complexes (15–20) was investigated in a solution resembling physiological conditions (20 mM of phosphate buffer, pH 7.4, and 100 mM of NaCl at 37 °C) by UV-vis spectrophotometry (Table 1). The half-transformation time t1/2 was calculated based on changes in the electronic absorption spectrum (Figure S1) and defined as the value of t at the Alin/2 point. ΔA(t) was plotted against λmax; the initial section was approximated as a linear function.
The stability of Ru(III) complexes was studied by electron absorption spectroscopy in 20 mM of phosphate buffer, pH 7.4, and 100 mM of NaCl. The working solution (2 mL, 200 μM complex) was prepared by diluting 10 μL of the original 40 mM solution in DMSO and 1.99 mL of phosphate buffer. UV-vis spectra were recorded every 60 s in the range of 280–600 nm at 37 °C. The half-transformation time was t1/2. For λmax, ΔA(t) was plotted, where ΔA = A0–Ai, an initial section, was approximated as a linear function. At ΔAline./2 point calculated as t = t1/2.

A short description of series [2]: Lipophilicity, shake-flask method water/n-octanol. It counts as physicochemical. As to conditions: UV-vis, mean ± SD. Here is the method: The lipophilicity of complexes 15–20 was studied using a standard shake-flask method in a mixture of water/n-octanol. For the quantification of compounds in the water phase, UV-vis spectrophotometry was used. […] Among other complexes, as expected, 20 was the most lipophilic (Table 1).
N-octanol was saturated with water and with water saturated with n-octanol; mixture400 mL of n-octanol (water) and 100 mL of water (n-octanol) was stirred for 24 h; and then fractions were separated. The sample of the complex was dissolved in n-octanol and a series of solutions in octanol (300, 250, 3 × 200, 150, 100, and 50 μM) was prepared. Absorption spectra were recorded and the calibration curve for maximum absorption was plotted. From 200 μM solutions, the mixtures with water were prepared (1:1, 1:2, 2:1 v/v) and shaken for 15 min. The organic phase was separated by centrifugation. The concentration of the complex in n-octanol was determined from the calibration curve and lipophilicity (logP) was calculated as log P = log [(C0–Caq)/Caq].

A further series deals with A549. Put plainly: Antiproliferative activity, MTT assay. It counts as cell-based, human. As to conditions: read-out: IC50, µM A549. Here is the method: (§1) The antiproliferative activity of new ligands and complexes was determined against human cell lines, including colon adenocarcinoma SW480, breast adenocarcinoma MCF-7, lung adenocarcinoma A549, neuroblastoma SHSY5Y, and non-tumourigenic HaCaT (Table 4). In general, complexes were more cytotoxic compared to ligands, lonidamine, and, in some cases, cisplatin. […] We chose this compound and the synthetically accessible complex 16 for mechanistic studies.
(§2) The antiproliferative activity was studied by MTT assays as published previously. For flow cytometry studies, cells were plated into 6-well plates (Eppendorf, Germany; 4 × 10^5 cells in 2 mL of DMEM) and incubated for 24 h. Solutions of complexes in DMSO were prepared immediately prior to the day of the experiments. Cells were treated with either 20 µM of cisplatin, 50 µM of 16, or 20 µM of 20. Concentrations corresponded to two-fold IC50 values based on MTT assays. Cells were incubated for 24 h, pooled, washed with cold PBS, and resuspended in DMEM. Aliquots of cells were processed as recommended in the Muse Annexin V&Dead Cell Kit or Muse Caspase-3/7 Kit (Luminex). Measurements were carried out on a Muse Cell Analyser, Luminex corp., TX, USA.

Another series deals with MCF-7. Put plainly: Antiproliferative activity, MTT assay. The settings on record: read-out: IC50, µM MCF-7. It counts as cell-based, human. As to the method: as §1, §2
(Tetrazolium assays rely on reduction of a dye to a coloured formazan, in cell work by metabolically active cells.)

The next series deals with SH-SY5Y. Put plainly: Antiproliferative activity, MTT assay. It counts as cell-based, human. The settings on record: 72 h exposure, mean ± SD. As to the method: as §1, §2
The next series relates to SW480. Put plainly: Antiproliferative activity, MTT assay. It counts as cell-based, human. The settings on record: read-out: IC50, µM SW480. As to the method: as §1, §2
A further series deals with HaCaT. Put plainly: Antiproliferative activity, MTT assay. The settings on record: read-out: IC50 HaCaT. It counts as cell-based, human. As to the method:
as §1, §2

A short description of series [3]: Cyclic voltammetry (redox potentials). The settings on record: Pt and GC electrodes, CH3CN and CH2Cl2, any applied potential. It counts as physicochemical. As to the method:
The redox behaviour of ligand 10 and complexes 15–20 was studied on Pt and glassy carbon (GC) electrodes in CH3CN and CH2Cl2.
All electrochemical measurements were carried out under argon at room temperature. Cyclic voltammetry (CV) experiments were performed in KO264 PAR three-electrode microcells in CH3CN solution with 0.05 M of Bu4NBF4 as a supporting electrolyte using a IPC-Win potentiostat. The number of transferred electrons was determined by comparing to the height of the […] wave for the same concentration. A glassy carbon (GC) working electrode (diameter 2 mm), a platinum wire auxiliary electrode, and an aqueous Ag/AgCl/KCl (sat.) reference electrode was used. Solvents were routinely distilled and dried prior to use.

The next series concerns HCT116 cells. In words: Annexin V/7-AAD flow cytometry (Muse Annexin V & Dead Cell Kit). It counts as cell-based. The settings on record: HCT116, 24 h, 2xIC50; one representative experiment. As to the method:
Mechanisms of cell death, that is, Annexin V/7-AAD reactivity and caspase 3/7 activation, were determined for 16 and 20 in HCT116 cells using the Muse® Annexin V & Dead Cell Kit (Luminex corp., Austin, TX, USA) and flow cytometry. Cells were incubated with 16, 20, or cisplatin (reference drug) for 24 h at concentrations corresponding to 2xIC50 values (obtained in MTT assays; Table 4). The percentages of Annexin V-positive cells in response to 16 and 20 were higher than cisplatin (Figure 8). Complex 20 with the C12 linker induced Annexin V positivity slightly more efficiently than 16 with the C3 linker (27.4 ± 2.1% vs. 19.7 ± 0.6%).
as §2
(In flow cytometry, cells or beads pass a laser one at a time.)

Take “Na[trans-Ru(DMSO)(C24H25Cl2N5O)Cl4] [Compound 18]”: in [1], the “t1/2 (half-transformation time)” value amounted to 10.8 ± 0.5 min. The “Log P” value in series [2] was determined as 0.6 ± 0.1. Besides, the IC50 was 12.9 ± 1 µM in the series on A549 (MTT, 72 h exposure, mean ± SD); 22 ± 0.7 µM in the series on MCF-7 (MTT, 72 h exposure, mean ± SD); 5.1 ± 2.5 µM in the series on SH-SY5Y; 19.6 ± 3.9 µM with SW480 (MTT, 72 h exposure, mean ± SD).

`O=C(NCCn1ccnc1)c1nn(Cc2ccc(Cl)cc2Cl)c2ccccc12` [Compound 9, N-(2-(1H-Imidazol-1-yl)ethyl)-1-(2,4-dichlorobenzyl)-1H-indazole-3-carboxamide] displayed a melting point of 120 to 121 °C. Moreover, the IC50 with A549 (Homo sapiens, A549, 72 h) was found to be 50 ± 16 µM. Besides, the IC50 in the series with HaCaT (Homo sapiens, HaCaT, 72 h) turned out to be 23 ± 2 µM. For the same molecule, in the series on MCF-7 (Homo sapiens, MCF7, 72 h), the IC50 turned out to be 35 ± 6 µM. Further, in the series with SW480 (Homo sapiens, SW480, 72 h), the IC50 is 48 ± 10 µM.

On to “Na[trans-Ru(DMSO)(C20H17Cl2N5O)Cl4] [Compound 15]”, for which, in series [1], the “t1/2 (half-transformation time)” value is 6 ± 0.333 min. In addition, the IC50 with A549 (MTT, 72 h exposure, mean ± SD) is above 30 µM; with MCF-7 (MTT, 72 h exposure, mean ± SD), 20.4 ± 0.1 µM; in the series on SH-SY5Y, 25.8 ± 4.5 µM; in the series with SW480 (MTT, 72 h exposure, mean ± SD), 21.4 ± 1.8 µM.

Take `O=C(NCCCCCCn1ccnc1)c1nn(Cc2ccc(Cl)cc2Cl)c2ccccc12` [Compound 12, N-(6-(1H-Imidazol-1-yl)hexyl)-1-(2,4-dichlorobenzyl)-1H-indazole-3-carboxamide]: the IC50 is 24 ± 10 µM in the series with A549 (Homo sapiens, A549, 72 h); 40 ± 4 µM in the series with HaCaT (Homo sapiens, HaCaT, 72 h); 17 ± 2.5 µM in the series on MCF-7 (Homo sapiens, MCF7, 72 h); 16 ± 6 µM in the series with SW480 (Homo sapiens, SW480, 72 h).

In the case of “Na[trans-Ru(DMSO)(C22H21Cl2N5O)Cl4] [Compound 17]”, the “t1/2 (half-transformation time)” value in [1] came out at 6 ± 0.333 min. For the same molecule, the IC50 in the series with A549 (MTT, 72 h exposure, mean ± SD) is above 30 µM; with MCF-7 (MTT, 72 h exposure, mean ± SD), above 30 µM; with SH-SY5Y, 27.7 ± 3.3 µM; with SW480 (MTT, 72 h exposure, mean ± SD), 21 ± 1.8 µM.

In the case of `O=C(NCCCn1ccnc1)c1nn(Cc2ccc(Cl)cc2Cl)c2ccccc12` [Compound 10, N-(3-(1H-Imidazol-1-yl)propyl)-1-(2,4-dichlorobenzyl)-1H-indazole-3-carboxamide], the melting point lay in the range of 121 to 122 °C. In addition, the “redox transitions of the ligand” value in [3] was “redox transitions were not observed”. Moreover, the IC50 in the series with A549 (Homo sapiens, A549, 72 h) is above 90 µM. The concentration for half-maximal inhibition (IC50) with HaCaT (Homo sapiens, HaCaT, 72 h) was 39 ± 4 µM. In addition, in the series on MCF-7 (Homo sapiens, MCF7, 72 h), the IC50 was above 90 µM. Moreover, the IC50 in the series on SW480 (Homo sapiens, SW480, 72 h) is above 90 µM.

The molecule `O=C(NCCCCn1ccnc1)c1nn(Cc2ccc(Cl)cc2Cl)c2ccccc12` [Compound 11, N-(4-(1H-Imidazol-1-yl)butyl)-1-(2,4-dichlorobenzyl)-1H-indazole-3-carboxamide] displayed a melting point of 98 to 100 °C. Moreover, the IC50 in the series on A549 (Homo sapiens, A549, 72 h) came to 25 ± 7 µM. In the series with HaCaT (Homo sapiens, HaCaT, 72 h), the IC50 was found to be 45 ± 3 µM. The IC50 in the series with MCF-7 (Homo sapiens, MCF7, 72 h) amounted to 22 ± 6 µM. Further, the IC50 in the series with SW480 (Homo sapiens, SW480, 72 h) stood at 28 ± 8 µM.

On to `O=C(O)c1nn(Cc2ccc(Cl)cc2Cl)c2ccccc12` [lonidamine, 1-(2,4-dichlorobenzyl)-1H-indazole-3-carboxylic acid], for which the IC50 with A549 (Homo sapiens, A549, MTT, 72 h exposure, mean ± SD) was above 90 µM; with HaCaT (Homo sapiens, HaCaT, MTT, 72 h exposure, non-tumourigenic cells, mean ± SD), 3 ± 1 µM; in the series with MCF-7 (Homo sapiens, MCF7, MTT, 72 h exposure, mean ± SD), 30 ± 10 µM; with SH-SY5Y (Homo sapiens, SH-SY5Y), above 30 µM; with SW480 (Homo sapiens, SW480, MTT, 72 h exposure, mean ± SD) it was above 90 µM.

In turn, `O=C(NCCCCCCCCCCCCn1ccnc1)c1nn(Cc2ccc(Cl)cc2Cl)c2ccccc12` [Compound 14, N-(12-(1H-Imidazol-1-yl)dodecyl)-1-(2,4-dichlorobenzyl)-1H-indazole-3-carboxamide] came in with a melting point of 86 to 88 °C. In addition, the IC50 with A549 (Homo sapiens, A549, 72 h) was determined as 15 ± 2.2 µM. Further, the IC50 with MCF-7 (Homo sapiens, MCF7, 72 h) stood at 20.8 ± 4.7 µM. For the same molecule, the IC50 in the series with SW480 (Homo sapiens, SW480, 72 h) is 8.4 ± 1.6 µM.

With “Na[trans-Ru(DMSO)(C26H29Cl2N5O)Cl4] [Compound 19]”, the “t1/2 (half-transformation time)” value in series [1] was found to be 23.17 ± 1.17 min. Further, the IC50 was 5.9 ± 2.6 µM with A549 (MTT, 72 h exposure, mean ± SD); 17.1 ± 0.3 µM in the series on MCF-7 (MTT, 72 h exposure, mean ± SD); 2.64 ± 1.5 µM with SH-SY5Y; 9.3 ± 0.1 µM in the series on SW480 (MTT, 72 h exposure, mean ± SD).

On to `N.N.[Cl][Pt][Cl]` [cisplatin, reference compound], for which the IC50 in the series on A549 (MTT, 72 h exposure, mean ± SD) was 23 ± 6.5 µM; in the series with HaCaT (MTT, 72 h exposure, non-tumourigenic cells, mean ± SD), 10 ± 5 µM; in the series on MCF-7 (MTT, 72 h exposure, mean ± SD), above 30 µM; with SH-SY5Y, 9.5 ± 0.1 µM; with SW480 (MTT, 72 h exposure, mean ± SD) it was 21.7 ± 0.5 µM. For the same molecule, in the series with HCT116 cells, the “early apoptosis (Annexin V/7-AAD)” value worked out at 4%. For the same molecule, in the series with HCT116 cells, the “late apoptosis (Annexin V/7-AAD)” value amounted to 8%. Further, the “live cells (Annexin V/7-AAD)” value with HCT116 cells was 88%. In the series with HCT116 cells, the “necrosis (Annexin V/7-AAD)” value came out at 0%.

Consider `O=C(NCCCCCCCCn1ccnc1)c1nn(Cc2ccc(Cl)cc2Cl)c2ccccc12` [Compound 13, N-(8-(1H-Imidazol-1-yl)octyl)-1-(2,4-dichlorobenzyl)-1H-indazole-3-carboxamide], for which the IC50 with A549 (Homo sapiens, A549, 72 h) is 15 ± 6 µM; in the series with HaCaT (Homo sapiens, HaCaT, 72 h), 45 ± 2 µM; in the series on MCF-7 (Homo sapiens, MCF7, 72 h) it was 10 ± 2 µM; in the series with SW480 (Homo sapiens, SW480, 72 h) it was above 90 µM.
